The text below walks through data of patent publication US20250230171A1 (MOMA Therapeutics, Inc., priority 2023, published 2025).

In one experiment the test system is DLD1 WT cells. Description: 7-day cell viability assay (CellTiter-Glo), DLD1 parental (WT). Type of experiment: cell-based, human. As to conditions: Homo sapiens, DLD-1, 168 h, 7-day CellTiter-Glo, n=2. For orientation: Cellular ATP, detected with luciferase, serves as a proxy for viable cell number.
The subject of the next experiment is DLD1 BRCA2 (−/−) cells. Description: 7-day cell viability assay (CellTiter-Glo), DLD1 BRCA2 (−/−). It counts as cell-based, human. The conditions noted are these: Homo sapiens, DLD-1, 168 h, 7-day CellTiter-Glo, n=2, read-out: Viability IC50 (uM) DLD1 BRCA2 null. Put shortly: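 7-day growth assay in DLD1 cells with or without BRCA2; seeding densities chosen to keep log-linear growth. Compound: 10 uM top, 3-fold, 9 points. Endpoint: CTG ATP luminescence at RT.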

Broadly, the IC50 is the concentration needed to halve the response being measured. As to `COc1cnc(Cl)cc1-c1cc(C)ncc1C(=O)Nc1nc2c(s1)CN(C(=O)c1nc(C)c(C#N)cc1F)C2` [Example 1006, 2′-chloro-N-(5-(5-cyano-3-fluoro-6-methylpicolinoyl)-5,6-dihydro-4H-pyrrolo[3,4-d]thiazol-2-yl)-5′-methoxy-6-methyl-[4,4′-bipyridine]-3-carboxamide], the IC50 was at least 10 µM with DLD1 WT cells and 0.001 to 0.1 µM in the experiment with DLD1 BRCA2 (−/−) cells.

Take `COc1cnc(Cl)cc1-c1cc(C)ncc1C(=O)Nc1nc2c(s1)CN(C(=O)c1ccc(C#N)c(C(F)F)n1)C2` [Example 1015, 2′-chloro-N-(5-(5-cyano-6-(difluoromethyl)picolinoyl)-5,6-dibydro-4H-pyrrolo[3,4-d]thiazol-2-yl)-5′-methoxy-6-methyl-[4,4′-bipyridine]-3-carboxamide]: the IC50 is at least 10 µM in the experiment on DLD1 WT cells and 0.001 to 0.1 µM with DLD1 BRCA2 (−/−) cells.

On to `COc1cnc(Cl)cc1-c1cc(C)ncc1C(=O)Nc1nc2c(s1)CN(C(=O)c1nccc(C(F)F)c1C)C2` [Example 976, 2′-chloro-N-(5-(4-(difluoromethyl)-3-methylpicolinoyl)-5,6-dihydro-4H-pyrrolo[3,4-d]thiazol-2-yl)-5′-methoxy-6-methyl-[4,4′-bipyridine]-3-carboxamide], for which the IC50 is at least 10 µM in the experiment on DLD1 WT cells and 0.001 to 0.1 µM in the experiment with DLD1 BRCA2 (−/−) cells.

`Cc1cc(-c2cc(Cl)ncc2OC(F)F)c(C(=O)Nc2nc3c(s2)CN(C(=O)c2ncc(Cl)cn2)C3)cn1` [Example 910, 2′-chloro-N-(5-(5-chloropyrimidine-2-carbonyl)-5,6-dihydro-4H-pyrrolo[3,4-d]thiazol-2-yl)-5′-(difluoromethoxy)-6-methyl-[4,4′-bipyridine]-3-carboxamide]: the concentration for half-maximal inhibition (IC50) in the experiment on DLD1 WT cells is at least 10 µM; in the experiment on DLD1 BRCA2 (−/−) cells, 0.001 to 0.1 µM.

Consider `COc1cnc(Cl)cc1-c1cc(C)ncc1C(=O)Nc1nc2c(s1)CN(C(=O)c1ccc(C(F)(F)F)c(C)n1)C2`, for which the concentration for half-maximal inhibition (IC50) in the experiment on DLD1 WT cells was at least 10 µM; in the experiment on DLD1 BRCA2 (−/−) cells, 0.001 to 0.1 µM.

For `COc1cnc(Cl)cc1-c1cc(C)ncc1C(=O)Nc1nc2c(s1)CN(C(=O)c1ncc(OC(F)(F)F)cc1C)C2` [Example 1007, 2′-chloro-5′-methoxy-6-methyl-N-(5-(3-methyl-5-(trifluoromethoxy)picolinoyl)-5,6-dihydro-4H-pyrrolo[3,4-d]thiazol-2-yl)-[4,4′-bipyridine]-3-carboxamide], the half-maximal inhibitory concentration (IC50) in the experiment with DLD1 WT cells is at least 10 µM; with DLD1 BRCA2 (−/−) cells, 0.001 to 0.1 µM.

In the case of `COc1cnc(Cl)cc1-c1cc(C)ncc1C(=O)Nc1nc2c(s1)CN(C(=O)c1ccc(OC(F)F)nc1OC)C2` [Example 985, 2′-chloro-N-(5-(6-(difluoromethoxy)-2-methoxynicotinoyl)-5,6-dihydro-4H-pyrrolo[3,4-d]thiazol-2-yl)-5′-methoxy-6-methyl-[4,4′-bipyridine]-3-carboxamide], the IC50 is at least 10 µM in the experiment with DLD1 WT cells and 0.001 to 0.1 µM in the experiment with DLD1 BRCA2 (−/−) cells.

Consider `COc1cnc(Cl)cc1-c1cc(C)ncc1C(=O)Nc1nc2c(s1)CN(C(=O)c1cc(C)c(C(F)F)cn1)C2` [Example 903, 2′-chloro-N-(5-(5-(difluoromethyl)-4-methylpicolinoyl)-5,6-dihydro-4H-pyrrolo[3,4-d]thiazol-2-yl)-5′-methoxy-6-methyl-[4,4′-bipyridine]-3-carboxamide], for which the IC50 in the experiment with DLD1 WT cells was at least 10 µM; with DLD1 BRCA2 (−/−) cells, 0.001 to 0.1 µM.

Turning to `COc1cnc(Cl)cc1-c1cc(C)ncc1C(=O)Nc1nc2c(s1)CN(C(=O)c1c(C)cc(C(F)(F)F)nc1C)C2` [Example 649], the IC50 in the experiment on DLD1 WT cells was at least 10 µM; in the experiment with DLD1 BRCA2 (−/−) cells, 0.001 to 0.1 µM.

Turning to `COc1cnc(Cl)cc1-c1cc(C)ncc1C(=O)Nc1nc2c(s1)CN(C(=O)c1nc(C)c(C(F)F)nc1C)C2`, the figures for the concentration for half-maximal inhibition (IC50) in the experiment with DLD1 WT cells and in the experiment on DLD1 BRCA2 (−/−) cells were at least 10 µM and 0.001 to 0.1 µM, respectively.

Turning to `COc1cnc(Cl)cc1-c1cc(C)ncc1C(=O)Nc1nc2c(s1)CN(C(=O)C1CCN(CC(F)(F)F)CC1)C2` [Example 959, 2′-chloro-5′-methoxy-6-methyl-N-(5-(1-(2,2,2-trifluoroethyl)piperidine-4-carbonyl)-5,6-dihydro-4H-pyrrolo[3,4-d]thiazol-2-yl)-[4,4′-bipyridine]-3-carboxamide], the IC50 in the experiment on DLD1 WT cells was at least 10 µM; with DLD1 BRCA2 (−/−) cells, 0.001 to 0.1 µM.
